In ChEMBL document CHEMBL3627620, “Design, synthesis, and biological evaluation of aminopyrazine derivatives as inhibitors of mitogen-activated protein kinase-activated protein kinase 2 (MK-2)” (Bioorg Med Chem Lett, 2015):

Key:
[1] = Antiinflammatory activity in human THP1 cells assessed as inhibition of LPS-stimulated TNFalpha production; settings: THP-1
[2] = molecular target: MAP kinase-activated protein kinase 2 (Homo sapiens) (UniProt P49137); test: Inhibition of MK2 (unknown origin) at 50 uM by scintillation proximity assay
[3] = Antiinflammatory activity in human THP1 cells assessed as inhibition of LPS-stimulated TNFalpha production at […] uM; assay type: functional; settings: THP-1
[4] = Antiinflammatory activity in human THP1 cells assessed as inhibition of LPS-stimulated TNFalpha production at 50 uM; assay type: functional; settings: THP-1
[5] = Ratio of IC50 for human THP1 cells assessed as inhibition of LPS-stimulated TNFalpha production to IC50 for MK2 (unknown origin); design: species or system THP-1

Sequence of MAP kinase-activated protein kinase 2 (Homo sapiens) (P49137 whole entry, looked up): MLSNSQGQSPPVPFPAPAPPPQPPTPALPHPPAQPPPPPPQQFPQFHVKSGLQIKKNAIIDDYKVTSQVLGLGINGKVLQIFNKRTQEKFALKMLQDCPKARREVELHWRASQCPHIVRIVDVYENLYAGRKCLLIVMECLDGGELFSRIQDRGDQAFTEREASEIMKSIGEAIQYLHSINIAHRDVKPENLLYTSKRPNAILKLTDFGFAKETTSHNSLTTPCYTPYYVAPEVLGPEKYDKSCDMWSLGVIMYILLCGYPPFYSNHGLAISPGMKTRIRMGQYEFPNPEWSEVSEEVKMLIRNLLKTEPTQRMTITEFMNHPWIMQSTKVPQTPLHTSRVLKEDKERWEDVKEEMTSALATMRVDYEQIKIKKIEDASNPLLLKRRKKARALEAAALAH

Which IC50 [1] does the source give for `Nc1ncc(C2CC2)nc1CN/C(=N\C(=O)c1ccc(Cl)cc1)Nc1ccc2[nH]c(=O)oc2c1` here?
The IC50 was 8.8 µM.

With `CCCc1cnc(N)c(CN/C(=N\C#N)Nc2ccc3[nH]c(=O)oc3c2)n1` as the compound, how does the IC50 [1] read?
Its IC50 is 42 µM.

For `Nc1ncc(Cl)nc1-c1nc(N2CCc3ccccc32)no1`, which inhibition [2] is on record?
Its inhibition is 20%.

What does the source list for `Nc1ncc(C2CC2)nc1CNC(=O)Nc1ccc2[nH]c(=O)oc2c1`?
IC50 [1]: > 12.5 µM; inhibition at 12.5 µM [3]: 45%

For `Cc1ccc(C(=O)/N=C(\NCc2nc(C3CC3)cnc2N)Nc2ccc3[nH]c(=O)oc3c2)cc1`, which IC50 [1] is on record?
The IC50 was 3.9 µM.

With `CC(C)(C)OC(=O)Nc1ccc(N/C(=N/C#N)NCc2nc(C3CC3)cnc2N)cc1` as the compound, how does the IC50 [1] read?
Its IC50 is 10.2 µM.

Which IC50 [1] does the source give for `CO/N=C(\NCc1nc(Cl)cnc1N)Nc1ccc(NC(=O)OC(C)(C)C)cc1` here?
The IC50 was > 50 µM.

What about the inhibition at 50 µM [4] of the same compound?
Its inhibition at 50 µM is 40%.

Which inhibition [2] does the source give for `Nc1ncc(Cl)nc1CNc1nc2ccccc2s1` here?
The inhibition was 36%.

Which IC50 [1] does the source give for `CCCc1cnc(N)c(CNC(=O)Nc2ccc3[nH]c(=O)oc3c2)n1` here?
Its IC50 is > 12.5 µM.

What about the inhibition at 12.5 µM [3] of the same compound?
Its inhibition at 12.5 µM is 34%.

For `CCOC(=O)/N=C(\NCc1nc(C2CC2)cnc1N)Nc1ccc2[nH]c(=O)oc2c1`, which IC50 [1] is on record?
The IC50 was 13 µM.

With `Nc1ncc(Cl)nc1CNC(=S)Nc1ccccc1` as the compound, how does the “Ratio IC50” value [5] read?
The value was 4.

And the IC50 [1]?
The IC50 was 7.9 µM.
